From the NIST ThermoML archive (doi:10.1021/je8004613)
Numbers after ± are expanded uncertainties.

What was measured:
[1] = 101.33 kPa, Liquid; for speed of sound: Pulse-echo method; for mass density: Vibrating tube method
[2] = excess molar enthalpy (molar enthalpy of mixing); xn = mol fraction of the nth substance listed; conditions: 298.15 K, 101 kPa, Liquid

With `CCCCCCCC` [octane] as the compound, how does the speed of sound ([1]; 288.15 K) read?
The speed of sound was 1213.6 ± 1 m/s.

What about the mass density ([1]; 288.15 K) of the same compound?
The mass density was 706.58 ± 0.23 kg/m3.

And the speed of sound ([1]; 293.15 K)?
Its speed of sound is 1193 ± 1 m/s.

And the mass density ([1]; 293.15 K)?
The mass density was 702.57 ± 0.23 kg/m3.

And the speed of sound ([1]; 298.15 K)?
The speed of sound was 1171.9 ± 1 m/s.

And the mass density ([1]; 298.15 K)?
The mass density was 698.55 ± 0.23 kg/m3.

What about the speed of sound ([1]; 303.15 K) of the same compound?
The speed of sound was 1151 ± 1 m/s.

And the mass density ([1]; 303.15 K)?
The mass density was 694.48 ± 0.23 kg/m3.

What about the speed of sound ([1]; 308.15 K) of the same compound?
The speed of sound was 1130.3 ± 1 m/s.

What about the mass density ([1]; 308.15 K) of the same compound?
Its mass density is 690.42 ± 0.23 kg/m3.

Which excess molar enthalpy ([2]; x2 = 0.03632) does the source give for `CCCCCCCC` [octane] + CCCCO here?
The excess molar enthalpy was 0.0772 ± 0.00167 kcal/mol.

What about the excess molar enthalpy ([2]; x2 = 0.0645) of the same compound?
Its excess molar enthalpy is 0.102 ± 0.00191 kcal/mol.

What about the excess molar enthalpy ([2]; x2 = 0.1182) of the same compound?
Its excess molar enthalpy is 0.128 ± 0.00239 kcal/mol.

And the excess molar enthalpy ([2]; x2 = 0.1568)?
Its excess molar enthalpy is 0.137 ± 0.00239 kcal/mol.

And the excess molar enthalpy ([2]; x2 = 0.2031)?
The excess molar enthalpy was 0.152 ± 0.00263 kcal/mol.

And the excess molar enthalpy ([2]; x2 = 0.2488)?
The excess molar enthalpy was 0.158 ± 0.00287 kcal/mol.

What about the excess molar enthalpy ([2]; x2 = 0.299) of the same compound?
Its excess molar enthalpy is 0.163 ± 0.00287 kcal/mol.

And the excess molar enthalpy ([2]; x2 = 0.345)?
Its excess molar enthalpy is 0.164 ± 0.00287 kcal/mol.

And the excess molar enthalpy ([2]; x2 = 0.4028)?
Its excess molar enthalpy is 0.163 ± 0.00287 kcal/mol.

And the excess molar enthalpy ([2]; x2 = 0.4499)?
Its excess molar enthalpy is 0.16 ± 0.00287 kcal/mol.

And the excess molar enthalpy ([2]; x2 = 0.5029)?
The excess molar enthalpy was 0.152 ± 0.00263 kcal/mol.

And the excess molar enthalpy ([2]; x2 = 0.6034)?
Its excess molar enthalpy is 0.134 ± 0.00239 kcal/mol.

And the excess molar enthalpy ([2]; x2 = 0.6988)?
Its excess molar enthalpy is 0.112 ± 0.00215 kcal/mol.

What about the excess molar enthalpy ([2]; x2 = 0.7979) of the same compound?
Its excess molar enthalpy is 0.0817 ± 0.00167 kcal/mol.

What about the excess molar enthalpy ([2]; x2 = 0.9005) of the same compound?
Its excess molar enthalpy is 0.0435 ± 0.0012 kcal/mol.

What about the excess molar enthalpy ([2]; x2 = 0.9493) of the same compound?
Its excess molar enthalpy is 0.0225 ± 0.000717 kcal/mol.
